Test results as given in US11505574B2, “Modulation of P53 for the treatment of cancer” (THE REGENTS OF THE UNIVERSITY OF CALIFORNIA, priority 2016, dated 2022).
Bridges are numbered along the chain shown (N, C = ends). Where no end group is shown, it is not given here. [ ]: non-standard residue; d: D form.

What was measured:
eIF4E (His-tagged) = eIF4E (His-tagged) (Homo sapiens, UniProt P06730); experiment: Pulldown of His-tagged eIF4E by peptides bound to TentaGel resin; assay type: binding; details: linear and cyclized Pep8 on TentaGel resin; 2 μg purified eIF4E overnight (FIG. 36A)
Chain of eIF4E (His-tagged) (P06730 whole entry): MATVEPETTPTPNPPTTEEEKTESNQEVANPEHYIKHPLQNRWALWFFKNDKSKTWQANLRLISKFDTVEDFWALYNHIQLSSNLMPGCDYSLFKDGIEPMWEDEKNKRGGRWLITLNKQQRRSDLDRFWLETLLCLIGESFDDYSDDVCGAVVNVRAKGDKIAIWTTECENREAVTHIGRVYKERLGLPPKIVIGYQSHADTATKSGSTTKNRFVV
Protocol: The peptides bound to Tentagel™ resin were incubated with His-eIF4E overnight and then washed extensively before being eluted with SDS-PAGE lysis buffer followed by Western blot assay for His-eIF4E. Lane #1: peptide-8 (SEQ ID NO:1); Lane #2: Cyc-8 peptide (SEQ ID NO:5); Lane #3: kAmi-8 peptide (SEQ ID NO:8); Lane #4: Ami-8 peptide (SEQ ID NO:7).
For the experiments shown in FIG. 36A, linear and cyclized versions of Pep8 (i.e., peptides having the amino acid sequences set forth in SEQ ID NOS:1, 5, 7, and 8) were synthesized and bound to TentaGel resin. Resin was washed 3× with 1× lysis buffer, and then incubated with 1× lysis buffer+0.3% BSA for 1 hour while rotating in a cold room. Next, resin was incubated with 1× lysis buffer+0.3% BSA+2 μg purified eIF4E (His-tagged) overnight. Next, resin was washed with 1× lysis buffer+0.3% BSA 3 times, followed by washing with 1× lysis buffer with no Triton X-100 three times. Finally, elution was performed with 1×SDS-loading buffer (70 μl) to load all onto a 12% SDS-PAGE gel for Western blot for His-tagged eIF4E.

MCF7 tumor spheres = experiment: MCF7 tumor sphere assay; assay type: cell-based, human; details: MCF7 cells; 150 nM with 3 μg PEP1; 3.125 ng/mL doxorubicin; 7 days (FIG. 36C)
Protocol: For the experiments shown in FIG. 34E, MCF7 cells were plated at a density of 20,000 cells per well using 2 mL Mammocult media in 6-well ultra-low adherent plates. The following day, cells were treated with Pen-Ctrl or Pen-Pep8 at a concentration of 5 μM. Peptides were added to each well for 20 minutes followed by 6.25 ng/mL doxorubicin. Cells were grown for 7 days and then the number of tumor spheres that were larger than 50 μm in diameter were counted (i.e., 20 10× photos were randomly taken and tumor spheres counted from the digital photos). For the graph shown in FIG. 34F, statistical analysis was performed using the student's t-test (n=3; *p≤0.05).
For the experiments shown in FIG. 36C, MCF7 cells were plated at a density of 20,000 cells per well using 2 mL Mammocult media in 6-well ultra-low adherent plates. The following day, cells were treated with 150 nM Cyc-Ctrl or Cyc-Pep8 (SEQ ID NO:5). 150 nM Cyc-Ctr/Pep8 was incubated in 100 μL serum-free DMEM with 3 μg PEP1 for 25 minutes before being added to the cells. After 20 minutes, 3.125 ng/mL doxorubicin was added to the cells for 7 days. Cells were grown for 7 days and then tumor spheres were counted that were larger than 50 μm in diameter (i.e., 20 10× photos were randomly taken and tumor spheres were counted from the digital photos).

p53 = experiment: Western blot for p53 and downstream targets in RKO cells treated with peptides; assay type: cell-based, human; details: for protein expression of p53 and downstream target MDM2 (Western blot): 375 nM peptide with 7.5 μg PEP1 (20:1), 18 hours (FIG. 1E)

In the case of “cYPYAASPAc ([dC]YPYAASPA[dC]; disulfide 1-10 (inferred)) [Cyc-8, disulfide cyclic 10-mer of peptide-8]”, the “binding of His-tagged eIF4E (pulldown, Western blot)” value (eIF4E (His-tagged)) is reported as “bound the most eIF4E”, the “tumor spheres larger than 50 μm in diameter, sensitization to low-dose doxorubicin” value (MCF7 tumor spheres) is reported as “sensitized MCF7 tumor spheres to low-dose doxorubicin treatment” and the “p53 expression in combination with low-dose doxorubicin, cyclized versus linear peptide” value (p53; 6.25 ng/mL doxorubicin (FIG. 23E)) is reported as “stronger effect in combination with low-dose doxorubicin”. For the same substance, the “upregulation of p53 (Western blot), cyclized versus linear peptide” value (p53; 25 nM, 50 nM, 150 nM, 375 nM peptide (FIGS. 23A-23D)) was “stronger upregulation of p53”, the “p53 expression, potency compared to other forms of Pep8 (Western blot)” value (p53; RKO cells, 25 nM, 50 nM, 150 nM or 375 nM with PEP1 at 20:1 molar ratio, 18 hours (FIG. 36B)) was “increased potency compared to other forms of Pep8, as shown by an increase of p53 with the addition of only 25 nM of the peptide” and the “protein expression of p53 and downstream target MDM2 (Western blot)” value (p53; RKO cells) was “enhanced the protein expression of p53 and the downstream target MDM2”. The “protein expression of p53 and downstream target MDM2 (Western blot)” value (p53; RKO cells, listed as cyclized version of peptide-8) was “able to increase p53 protein expression”.
